Data taken from patent publication US8816085B2 (Takeda GmbH, priority 2009, dated 2014).

What was measured:
[1] = target: T1, PDE5A1 (human PDE5 from platelets) (Homo sapiens, UniProt O76074); experiment: Inhibition of type 5 phosphodiesterase (PDE5) activity, modified SPA test; assay type: biochemical; conditions: PDE5-containing human platelet lysate, 0.5 μM cGMP, value classes, read-out: PDE5A1 inhibitory values [measured as −logIC50 (mol/l)] (converted)
T1 construct: from tissue; host or cells: platelets from fresh blood of human donors (10,000 g supernatant of sonified platelets)
Procedure, shortened: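 Enzyme source: human platelet lysate (10,000 g supernatant), with 1 μM motapizone and 10 nM PDE2 inhibitor present. SPA format in 20 mM Tris pH 7.4, 5 mM Mg2+, 0.5 μM cGMP with [3H]cGMP tracer; 5 min preincubation at 37 °C, 15 min reaction, stopped with IBMX-containing beads. IC50 by non-linear regression.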

[2] = system: anaesthetised male Sprague Dawley rats; experiment: Phenylephrine-induced acute arterial hypertension and SNP-induced blood pressure response (MAP); assay type: in vivo; conditions: 3 mg/kg orally 90 min prior to SNP (30 μg/kg i.v.); continuous i.v. PE-infusion; vs. placebo
Source text: Nitric oxide regulates smooth muscle tone by elevation of cGMP via activation of guanylate cyclase and subsequent activation of cyclic GMP-dependent protein kinase. The amplitude and duration of the cGMP signal in smooth muscle is largely regulated by cGMP-specific cyclic nucleotide phosphodiesterase 5 (PDE5). […] The aim of the study was to evaluate the effects of the selective PDE5 inhibitors described in this present subject matter on phenylephrine-induced acute arterial hypertension and sodium-nitroprusside (SNP) induced blood pressure response in anaesthetised male Sprague Dawley rats.
The test compound (suspended in a 4% w/v aqueous methylcellulose solution 3 mg/kg) or placebo (i.e. 4% aqueous methylcellulose solution) is administered orally to conscious Sprague Dawley rats 90 min prior to SNP administration. 40 min later, rats are anaesthetised by intramuscular administration of 80 mg/kg ketamine-HCl+4 mg/kg xylazin-HCl and ventilated with ˜1.5% isoflurane in a mixture of ambient air and 40% oxygen. Catheters for i.v. PE- and SNP-administration and recording of mean arterial blood pressure (MAP) are inserted. […] To assess the effect of test compounds (PDE5 inhibitory activity) in comparison to placebo, MAP response is analysed. […]

Row | Structure (SMILES) | IC50 [1] | efficacy (% change vs. control), corr. AUCMAP 0-180 s following SNP-administration [2]
1 | CC(=O)N1CCC(NC(=O)c2c(C)[nH]c3c(-c4c(OCC5CC5)ccc5c4OCO5)ccnc23)CC1 [Example E01, N-(1-Acetylpiperidin-4-yl)-7-[5-(cyclopropylmethoxy)-1,3-benzodioxol-4-yl]-2-methyl-1H-pyrrolo[3,2-b]pyridine-3-carboxamide] | < 1 nM | ~−27%
2 | Cc1[nH]c2c(-c3c(OCC4CC4)ccc4c3OCO4)ccnc2c1C(=O)NC1CCN(C(=O)[C@H](C)O)CC1 [Example F02, 7-[5-(Cyclopropylmethoxy)-1,3-benzodioxol-4-yl]-N-{1-[(2S)-2-hydroxypropanoyl]piperidin-4-yl}-2-methyl-1H-pyrrolo[3,2-b]pyridine-3-carboxamide] | < 1 nM | ~−27%
3 | COc1cc(-c2ccnc3c(C(=O)NC4CCN(C(=O)CO)CC4)c(C)[nH]c23)c(OCC2CC2)cc1F [Example F40, 7-[2-(Cyclopropylmethoxy)-4-fluoro-5-methoxyphenyl]-N-[1-(hydroxyacetyl)piperidin-4-yl]-2-methyl-1H-pyrrolo[3,2-b]pyridine-3-carboxamide] | < 1 nM | 
4 | COc1cc(-c2ccnc3c(C(=O)NC4CCN(C(=O)[C@H](C)O)CC4)c(C)[nH]c23)c(OCC2CC2)cc1F [Example F41, 7-[2-(Cyclopropylmethoxy)-4-fluoro-5-methoxyphenyl]-N-{1-[(2S)-2-hydroxypropanoyl]piperidin-4-yl}-2-methyl-1H-pyrrolo[3,2-b]pyridine-3-carboxamide] | < 1 nM | 
5 | COc1cc(-c2ccnc3c(C(=O)N[C@H]4CC[C@H](NC(=O)CO)CC4)c(C)[nH]c23)c(OCC2CC2)cc1F [Example F42, 7-[2-(Cyclopropylmethoxy)-4-fluoro-5-methoxyphenyl]-N-{trans-4-[(hydroxyacetyl)amino]cyclohexyl}-2-methyl-1H-pyrrolo[3,2-b]pyridine-3-carboxamide] | < 1 nM | 
6 | COc1cc(OCC2CC2)c(-c2ccnc3c(C(=O)NC4CCN(C(=O)CO)CC4)c(C)[nH]c23)cc1F [Example F50, 7-[2-(Cyclopropylmethoxy)-5-fluoro-4-methoxyphenyl]-N-(1-glycoloylpiperidin-4-yl)-2-methyl-1H-pyrrolo[3,2-b]pyridine-3-carboxamide] | < 1 nM | 
7 | COc1cc(OCC2CC2)c(-c2ccnc3c(C(=O)NC4CCN(C(=O)[C@H](C)O)CC4)c(C)[nH]c23)cc1F [Example F51, 7-[2-(Cyclopropylmethoxy)-5-fluoro-4-methoxyphenyl]-N-{1-[(2S)-2-hydroxypropanoyl]piperidin-4-yl}-2-methyl-1H-pyrrolo[3,2-b]pyridine-3-carboxamide] | < 1 nM | 

Second part, led by results:

Row | IC50 [1] | Structure (SMILES) | efficacy (% change vs. control), corr. AUCMAP 0-180 s following SNP-administration [2]
8 | 1 to 10 nM | Cc1ccc(OCC2CC2)c(-c2ccnc3c(C(=O)N[C@H]4CC[C@H](NC(=O)[C@H](C)O)CC4)c(C)[nH]c23)c1 [Example F37, 7-[2-(Cyclopropylmethoxy)-5-methylphenyl]-N-(trans-4-{[(2S)-2-hydroxypropanoyl]amino}cyclohexyl)-2-methyl-1H-pyrrolo[3,2-b]pyridine-3-carboxamide] | 
9 | 1 to 10 nM | Cc1ccc(OCC2CC2)c(-c2ccnc3c(C(=O)N[C@H]4CC[C@@H](NC(=O)CO)CC4)c(C)[nH]c23)c1 [Example F38, 7-[2-(Cyclopropylmethoxy)-5-methylphenyl]-N-{cis-4-[(hydroxyacetyl)amino]cyclohexyl}-2-methyl-1H-pyrrolo[3,2-b]pyridine-3-carboxamide] | 
10 | 1 to 10 nM | Cc1ccc(OCC2CC2)c(-c2ccnc3c(C(=O)N[C@H]4CC[C@@H](NC(=O)[C@H](C)O)CC4)c(C)[nH]c23)c1 [Example F39, 7-[2-(Cyclopropylmethoxy)-5-methylphenyl]-N-(cis-4-{[(2S)-2-hydroxypropanoyl]amino}cyclohexyl)-2-methyl-1H-pyrrolo[3,2-b]pyridine-3-carboxamide] | 
11 | < 1 nM | COc1cc(-c2ccnc3c(C(=O)N[C@H]4CC[C@H](NC(=O)[C@H](C)O)CC4)c(C)[nH]c23)c(OCC2CC2)cc1F [Example F43, 7-[2-(Cyclopropylmethoxy)-4-fluoro-5-methoxyphenyl]-N-(trans-4-{[(2S)-2-hydroxypropanoyl]amino}cyclohexyl)-2-methyl-1H-pyrrolo[3,2-b]pyridine-3-carboxamide] | 
12 | < 1 nM | COc1cc(-c2ccnc3c(C(=O)N[C@H]4CC[C@@H](NC(=O)CO)CC4)c(C)[nH]c23)c(OCC2CC2)cc1F [Example F44, 7-[2-(Cyclopropylmethoxy)-4-fluoro-5-methoxyphenyl]-N-{cis-4-[(hydroxyacetyl)amino]cyclohexyl}-2-methyl-1H-pyrrolo[3,2-b]pyridine-3-carboxamide] | 
13 | < 1 nM | COc1cc(-c2ccnc3c(C(=O)N[C@H]4CC[C@@H](NC(=O)[C@H](C)O)CC4)c(C)[nH]c23)c(OCC2CC2)cc1F [Example F45, 7-[2-(Cyclopropylmethoxy)-4-fluoro-5-methoxyphenyl]-N-(cis-4-{[abs.(2S)-2-hydroxypropanoyl]amino}cyclohexyl)-2-methyl-1H-pyrrolo[3,2-b]pyridine-3-carboxamide] | 
14 | < 1 nM | COc1cc(OCC2CC2)c(-c2ccnc3c(C(=O)N[C@H]4CC[C@H](NC(=O)CO)CC4)c(C)[nH]c23)cc1F [Example F52, 7-[2-(Cyclopropylmethoxy)-5-fluoro-4-methoxyphenyl]-N-[trans-4-(glycoloylamino)cyclohexyl]-2-methyl-1H-pyrrolo[3,2-b]pyridine-3-carboxamide] | 
15 | < 1 nM | COc1cc(OCC2CC2)c(-c2ccnc3c(C(=O)N[C@H]4CC[C@H](NC(=O)[C@H](C)O)CC4)c(C)[nH]c23)cc1F [Example F53, 7-[2-(Cyclopropylmethoxy)-5-fluoro-4-methoxyphenyl]-N-(trans-4-{[(2S)-2-hydroxypropanoyl]amino}cyclohexyl)-2-methyl-1H-pyrrolo[3,2-b]pyridine-3-carboxamide] | 
16 | < 1 nM | COc1cc(OCC2CC2)c(-c2ccnc3c(C(=O)N[C@H]4CC[C@@H](NC(=O)CO)CC4)c(C)[nH]c23)cc1F [Example F54, 7-[2-(Cyclopropylmethoxy)-5-fluoro-4-methoxyphenyl]-N-[cis-4-(glycoloylamino)cyclohexyl]-2-methyl-1H-pyrrolo[3,2-b]pyridine-3-carboxamide] | 
